Here are results for nine molecules from PubChem BioAssay (NCI).

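Protocol summary: plate cells (96-well), add compound at 5 concentrations, incubate 48 h, interpolate endpoints linearly. TGI: concentration producing complete growth inhibition.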 Some results are limits rather than exact numbers.

Some test systems named below: SK-MEL-2 melanoma; UO-31 renal; OVCAR-3 ovarian; SF-539 CNS; K-562 leukemia; NCI/ADR-RES ovarian; CCRF-CEM leukemia; SF-295 CNS; HCT-116 colon; OVCAR-4 ovarian; SF-268 CNS; HL-60(TB) leukemia; HT29 colon; NCI-H23 lung; KM12 colon.
Experiment in all cases: inhibition of tumour cell growth, NCI panel, 48 h

In the case of `CC(C)(C)c1cc2c(c(C(C)(C)C)c1O)CC(=O)O2`, the TGI in the experiment with SK-MEL-2 melanoma was 47.7 µM; in the experiment on UO-31 renal, 66.6 µM; in the experiment with OVCAR-3 ovarian, 50.7 µM; with SF-539 CNS, 62.5 µM; in the experiment with K-562 leukemia, over 100 µM; with NCI/ADR-RES ovarian it was 54.7 µM. Moreover, the TGI with CCRF-CEM leukemia is 73.5 µM; in the experiment with SF-295 CNS, 85.7 µM; in the experiment on HCT-116 colon, over 100 µM; in the experiment on OVCAR-4 ovarian, over 100 µM; in the experiment on SF-268 CNS it was over 100 µM; in the experiment on HL-60(TB) leukemia, 86.8 µM. Moreover, the TGI is over 100 µM in the experiment with HT29 colon, 59.3 µM in the experiment with NCI-H23 lung and 64.6 µM in the experiment with KM12 colon.
`Cc1cc(S(=O)(=O)Nc2nnc3c4ccccc4cnn23)c(S)cc1Cl`: the TGI was over 100 µM with SK-MEL-2 melanoma; over 100 µM with UO-31 renal; over 100 µM in the experiment with OVCAR-3 ovarian; over 95 µM with SF-539 CNS; over 100 µM in the experiment with K-562 leukemia; over 100 µM in the experiment with NCI/ADR-RES ovarian. Further, the TGI in the experiment on CCRF-CEM leukemia, in the experiment on SF-295 CNS, with HCT-116 colon, with OVCAR-4 ovarian, in the experiment with SF-268 CNS and in the experiment with HL-60(TB) leukemia was over 100 µM each time. Besides, the TGI with HT29 colon, in the experiment on NCI-H23 lung and in the experiment on KM12 colon was over 100 µM each time.
As to `O=C(O)c1nc2ccc(Cl)cc2[nH]c1=O`, the TGI with SK-MEL-2 melanoma, in the experiment with UO-31 renal, in the experiment with OVCAR-3 ovarian, in the experiment with SF-539 CNS, in the experiment on K-562 leukemia and with NCI/ADR-RES ovarian was over 100 µM in each case. The TGI in the experiment on CCRF-CEM leukemia, in the experiment with SF-295 CNS, with HCT-116 colon, in the experiment on OVCAR-4 ovarian, with SF-268 CNS and with HL-60(TB) leukemia was over 100 µM each time. For the same molecule, the TGI in the experiment with HT29 colon, in the experiment on NCI-H23 lung and in the experiment with KM12 colon was over 100 µM each time.
On to `O=[N+]([O-])c1ccc(-n2nc3ccc4c(no[n+]4[O-])c3[n+]2[O-])c([N+](=O)[O-])c1`, for which the TGI with SK-MEL-2 melanoma amounted to 9.92 µM; in the experiment with UO-31 renal, 13.2 µM; with OVCAR-3 ovarian, 6.39 µM; in the experiment on SF-539 CNS, 12.7 µM; in the experiment with K-562 leukemia, 5.75 µM; in the experiment with NCI/ADR-RES ovarian, 11 µM. The TGI with CCRF-CEM leukemia stood at 3.68 µM; in the experiment on SF-295 CNS it was 11.9 µM; in the experiment on HCT-116 colon it was 3.74 µM; with OVCAR-4 ovarian, 3.19 µM; with SF-268 CNS, 13.8 µM; in the experiment on HL-60(TB) leukemia it was 5.43 µM. For the same molecule, the results for the TGI in the experiment with HT29 colon, in the experiment with NCI-H23 lung and with KM12 colon were 15.1 µM, 5.43 µM and 13.1 µM, respectively.
For `CCC(=O)NI1OC(=O)c2ccccc21`, the TGI in the experiment with SK-MEL-2 melanoma, with UO-31 renal, with OVCAR-3 ovarian, in the experiment with SF-539 CNS, in the experiment on K-562 leukemia and with NCI/ADR-RES ovarian was over 100 µM in each case. Moreover, the TGI in the experiment with CCRF-CEM leukemia, with SF-295 CNS, in the experiment on HCT-116 colon, in the experiment with OVCAR-4 ovarian, in the experiment on SF-268 CNS and with HL-60(TB) leukemia was over 100 µM in each case. Further, the TGI in the experiment on HT29 colon, with NCI-H23 lung and with KM12 colon was over 100 µM throughout.
Consider `C=C1CCCC(C)(C)[C@H]1C/C=C1\CCOC1=O`, for which the TGI in the experiment on SK-MEL-2 melanoma is over 100 µM; in the experiment on UO-31 renal it was 29.6 µM; in the experiment with OVCAR-3 ovarian it was 34.8 µM; in the experiment with SF-539 CNS, 34.5 µM; with K-562 leukemia, 26.5 µM; in the experiment on NCI/ADR-RES ovarian, 26.8 µM. The TGI in the experiment with CCRF-CEM leukemia was over 100 µM; in the experiment with SF-295 CNS it was 30.8 µM; with HCT-116 colon it was 25.8 µM; with OVCAR-4 ovarian it was 26.8 µM; in the experiment with SF-268 CNS it was 23.9 µM; in the experiment with HL-60(TB) leukemia, 43.8 µM. Further, the TGI was determined as 28 µM with HT29 colon, 39 µM in the experiment with NCI-H23 lung and 31.8 µM with KM12 colon.
Turning to `CCCN(CCC)C(=S)N/N=C(/C)c1ccccc1O`, the TGI was 60.9 µM with SK-MEL-2 melanoma; over 100 µM in the experiment on UO-31 renal; 14.9 µM in the experiment with OVCAR-3 ovarian; 19.4 µM in the experiment with SF-539 CNS; over 100 µM with K-562 leukemia; 5.57 µM in the experiment with NCI/ADR-RES ovarian. The TGI with CCRF-CEM leukemia was over 33.9 µM; in the experiment on SF-295 CNS, over 100 µM; in the experiment on HCT-116 colon, 18.4 µM; with OVCAR-4 ovarian it was 32.3 µM; with SF-268 CNS, over 35.6 µM; with HL-60(TB) leukemia, over 29.5 µM. Besides, the figures for the TGI in the experiment with HT29 colon, with NCI-H23 lung and with KM12 colon were over 100 µM, over 68.2 µM and over 100 µM, respectively.
On to `CNC(=O)N(CCC#N)CCN(C(=O)N(C)C)c1ccccc1`, for which the TGI in the experiment on SK-MEL-2 melanoma, in the experiment with UO-31 renal, in the experiment with OVCAR-3 ovarian, in the experiment on SF-539 CNS, with K-562 leukemia and with NCI/ADR-RES ovarian was over 100 µM throughout. Moreover, the TGI in the experiment on CCRF-CEM leukemia, in the experiment with SF-295 CNS, in the experiment with HCT-116 colon, in the experiment on OVCAR-4 ovarian, in the experiment with SF-268 CNS and in the experiment with HL-60(TB) leukemia was over 100 µM each time. Also, the TGI in the experiment on HT29 colon, in the experiment on NCI-H23 lung and in the experiment with KM12 colon was over 100 µM in each case.
On to `O=C1c2c(ccc3c2CCC3)CC1Cc1ccc2c(c1)CCC2` (stereo not given), for which the TGI is 73.8 µM in the experiment with SK-MEL-2 melanoma; over 100 µM with UO-31 renal; over 100 µM with OVCAR-3 ovarian; over 100 µM in the experiment on SF-539 CNS; 80.1 µM in the experiment with K-562 leukemia; over 100 µM in the experiment with NCI/ADR-RES ovarian. For the same molecule, the TGI was 37.8 µM in the experiment on CCRF-CEM leukemia; 94.3 µM with SF-295 CNS; 47.2 µM in the experiment on HCT-116 colon; 85.4 µM in the experiment with OVCAR-4 ovarian; over 100 µM with SF-268 CNS; 21.7 µM in the experiment on HL-60(TB) leukemia. Moreover, the TGI in the experiment with HT29 colon was 60.9 µM; in the experiment on NCI-H23 lung, 85.9 µM; in the experiment with KM12 colon it was over 100 µM.
